Converted amounts (≈) assume the structure as drawn. Where two headings read alike, the source gives them in different places. Starred links: 1 amine or outer side, 2 acyl side, 3 side chain; linkers in the order of their positions; H or OH if unused. Positions of bridges follow the written chain, without caps; N, C: chain ends. Non-standard residues stand in square brackets, D forms with d. Residues, ends and D or L forms follow the SMILES beside them. *: point of attachment. Orn(4R-OH,5R-OCH2CH2NMe3+) = C[N+](C)(C)CCO[C@@H](N[*:3])[C@H](O)C[C@H](N[*:1])C(=O)[*:2]; pTerphenylCO(4''-OnC5H11) = CCCCCOc1ccc(-c2ccc(-c3ccc(C(=O)*)cc3)cc2)cc1; Orn(4R-OH,5R-OH) = O=C([C@H](C[C@@H](O)[C@@H](O)N[*:3])N[*:1])[*:2]; hTyr(3S-OH,4S-OH) = N[C@H](C(=O)O)[C@H](O)[C@@H](O)c1ccc(O)cc1; X2 = CCCCCCc1ccc(-c2ccc(-c3ccc(C(=O)*)cc3)cc2)cc1; X3 = CCCCCNc1ccc(-c2ccc(-c3ccc(C(=O)*)cc3)cc2)cc1; Pro(3S-OH,4S-Me) = C[C@H]1CN[C@H](C(=O)O)[C@H]1O; Hyp = O=C(O)[C@@H]1C[C@@H](O)CN1
How the values were obtained:
Type in all cases: cell-based
[1] = test system: Candida albicans ATCC 90029; assay: MIC assay (CLSI M27-A3), Candida albicans ATCC 90029; conditions: Candida albicans, read-out: MIC, Candida albicans ATCC 90029
Experimental: (§1) After a test compound was serially diluted, an MIC (minimum inhibitory concentration) assay was performed on the standard Candida strain and an MEC (minimum effective concentration) assay on the standard Aspergillus strain. The MIC assay was performed according to the guidelines of the Clinical and Laboratory Standards Institute (CLSI M27-A3) and the MEC assay according to the guidelines of the Clinical and Laboratory Standards Institute (CLSI M38-A2).
(§2) The frozen strain was passaged at least twice, and a single colony was picked and resuspended in normal saline or sterile water in a tube. The suspension was vortexed and adjusted to 0.5 McF (1×10^6 to 5×10^6 CFU/mL) using a spectrophotometer at wavelength 530 nm. The suspension was 50-fold diluted with normal saline and then 20-fold diluted with 1×RPMI 1640 broth (1×10^3 to 5×10^3 CFU/mL). 10 μL of the suspension was applied to an SDA plate for colony counting, with a range from about 10 to 50 single colonies.
(§3) At this time, the bacterium concentration in each well should be 0.5×10^3 to 2.5×10^3 CFU/mL.
(§4) For echinocandin drugs, Aspergillus was incubated at 28° C. for 21-26 h, and then the MEC results were read.
(§5) Yeast-type fungi: A disposable sealing film was applied to the 96-well plate, and the mixture was well mixed by shaking. Observation was performed through a plate reader with the naked eye. Comparisons were made to the growth control, and the minimum compound concentration corresponding to ≥50% growth inhibition was defined as MIC. Pictures were taken and saved using an automatic plate reader.

[2] = test system: Candida glabrata ATCC 15126; assay: MIC assay (CLSI M27-A3), Candida glabrata ATCC 15126; conditions: Nakaseomyces glabratus, read-out: MIC, Candida glabrata ATCC 15126
Experimental: as §1, §2, §3, §4, §5

[3] = test system: Candida parapsilosis ATCC 22019; assay: MIC assay (CLSI M27-A3), Candida parapsilosis ATCC 22019; conditions: Lodderomyces parapsilosis, ATCC22019, 24 h, read-out: MIC, Candida parapsilosis ATCC 22019
Experimental: as §1, §2, §3, §4, §5

Candida krusei ATCC 6258 = assay: MIC assay (CLSI M27-A3), Candida krusei ATCC 6258; conditions: Pichia kudriavzevii, ATCC6258, 24 h, read-out: MIC, Candida krusei ATCC 6258
Experimental: as §1, §2, §3, §4, §5

[4] = test system: Meyerozyma guilliermondii ATCC 6260; assay: MIC assay (CLSI M27-A3), Meyerozyma guilliermondii ATCC 6260; conditions: Meyerozyma guilliermondii, read-out: MIC, Meyerozyma guilliermondii ATCC 6260
Experimental: as §1, §2, §3, §4, §5

[5] = test system: Candida tropicalis ATCC 750; assay: MIC assay (CLSI M27-A3), Candida tropicalis ATCC 750; conditions: Candida tropicalis, read-out: MIC, Candida tropicalis ATCC 750
Experimental: as §1, §2, §3, §4, §5

[6] = test system: Aspergillus flavus ATCC 28539; assay: MEC assay (CLSI M38-A2), Aspergillus flavus ATCC 28539; conditions: first batch; 28° C., 21-26 h
Experimental: The MIC assay was performed according to the guidelines of the Clinical and Laboratory Standards Institute (CLSI M27-A3) and the MEC assay according to the guidelines of the Clinical and Laboratory Standards Institute (CLSI M38-A2).
Colonies on the plate were covered with about 1 mL of 0.85% normal saline or sterile water (polysorbate 20 was added at a final concentration of 0.1%-0.01%). […] The homogeneous upper layer of the suspension was transferred to a new sterile tube, which was then sealed and vortexed for 15 s (be careful as the suspension may produce an aerosol when the cover is removed). The concentration of the suspension was adjusted until an OD value of 0.09-0.13 was achieved using a spectrophotometer at 530 nm. […] 100 μL of sample was added to each well of the 96-well plate within 2 h after dilution (the final spore concentration in the susceptibility testing plate was at 0.4×10^4 to 5×10^4 CFU/mL).
Aspergillus: For echinocandin drugs, comparisons were made to the growth control under a plate reader, and the minimum drug concentration that could cause the hyphae to form small, round, compact hyphal particles was defined as MEC. For accurate determination of MEC values, the plate must not be vortexed before reading.

[7] = test system: Candida albicans ATCC 90028; assay: MIC assay (CLSI M27-A3), Candida albicans ATCC 90028; conditions: Candida albicans
Experimental: as §1, §2
At this time, the bacterium concentration in each well should be 0.5×10^3 to 2.5×10^3 CFU/mL. […]
as §5

[8] = test system: Candida albicans ATCC 44858; assay: MIC assay (CLSI M27-A3), Candida albicans ATCC 44858; conditions: Candida albicans, ATCC44858, read-out: MIC, Candida albicans ATCC 44858
Experimental: as §1, §2, §3, §4, §5

[9] = test system: Candida glabrata ATCC 36583; assay: MIC assay (CLSI M27-A3), Candida glabrata ATCC 36583; conditions: Nakaseomyces glabratus, ATCC36583, read-out: MIC, Candida glabrata ATCC 36583
Experimental: as §1, §2, §3, §4, §5

[10] = test system: Candida albicans (azole drug-resistant strain) R357; assay: MIC assay (CLSI M27-A3), Candida albicans azole drug-resistant strain R357; conditions: Candida albicans, read-out: MIC, Candida albicans (azole drug-resistant strain) R357
Experimental: as §1, §2, §3, §4, §5

[11] = test system: Candida albicans (azole drug-resistant strain) R358; assay: MIC assay (CLSI M27-A3), Candida albicans azole drug-resistant strain R358; conditions: Candida albicans, read-out: MIC, Candida albicans (azole drug-resistant strain) R358
Experimental: as §1, §2, §3, §4, §5

[12] = test system: Candida tropicalis (amphotericin-resistant strain) ATCC 200956; assay: microbe, parasite or virus in culture; conditions: Candida tropicalis, ATCC200956, read-out: MIC, Candida tropicalis (amphotericin-resistant strain) ATCC 200956
Experimental: as §1, §2, §3, §4, §5

[13] = ATCC90028, 24 h, read-out: MIC, Candida albicans ATCC 90028
[14] = ATCC90028, read-out: MIC, Candida albicans + 50% human serum ATCC 90028

Compound	MIC ([1]; ATCC90029, 24 h) [µg/mL]	MIC ([2]; ATCC15126, 24 h) [µg/mL]	MIC [3] [µg/mL]	MIC (Candida krusei ATCC 6258) [µg/mL]	MIC ([4]; ATCC6260, 24 h) [µg/mL]	MIC ([5]; ATCC750, 24 h) [µg/mL]	MEC, Aspergillus flavus ATCC 28539 [6] [µg/mL]	MIC ([1]; ATCC90029, first batch, 24 h, 35° C., ≥50% growth inhibition) [µg/mL]	MIC ([2]; ATCC15126, first batch, 24 h, 35° C., ≥50% growth inhibition) [µg/mL]	MIC ([4]; ATCC6260, first batch, 24 h, 35° C.) [µg/mL]	MIC ([5]; ATCC750, first batch, 24 h, 35° C.) [µg/mL]	MIC [7, 13] [µg/mL]	MIC [7, 14] [µg/mL]	MIC [8] [µg/mL]	MIC [9] [µg/mL]	MIC [10] [µg/mL]	MIC [11] [µg/mL]	MIC [12] [µg/mL]
CCCCCOc1ccc(-c2ccc(-c3ccc(C(=O)N[C@H]4C[C@@H](O)[C@@H](O)NC(=O)[C@@H]5[C@@H](O)[C@@H](C)CN5C(=O)[C@H]([C@@H](C)O)NC(=O)[C@H]([C@H](O)[C@@H](O)c5ccc(O)cc5)NC(=O)[C@@H]5C[C@@H](O)CN5C(=O)[C@H]([C@@H](C)O)NC4=O)cc3)cc2)cc1 [Anidulafungin, reference compound] ({pTerphenylCO(4''-OnC5H11)}-[Orn(4R-OH,5R-OH)]T[Hyp][hTyr(3S-OH,4S-OH)]T[Pro(3S-OH,4S-Me)]; lactam 1-C)	0.016 (≈ 0.014 µM)	0.125 (≈ 0.11 µM)	0.5 (≈ 0.438 µM)	0.063 (≈ 0.0553 µM)	1 (≈ 0.877 µM)	0.016 (≈ 0.014 µM)	0.031	–	–	–	–	–	–	–	–	–	–	–
CCCCCOc1ccc(-c2ccc(-c3ccc(C(=O)N[C@H]4C[C@@H](O)[C@@H](OCC5CCCC[N+]5(C)C)NC(=O)[C@@H]5[C@@H](O)[C@@H](C)CN5C(=O)[C@H]([C@@H](C)O)NC(=O)[C@H]([C@H](O)[C@@H](O)c5ccc(O)cc5)NC(=O)[C@@H]5C[C@@H](O)CN5C(=O)[C@H]([C@@H](C)O)NC4=O)cc3)cc2)cc1 (stereo partly shown) [Example 2]	–	–	1	0.125	–	–	0.031	0.125	0.125	2	0.016	–	–	–	–	–	–	–
CCCCCCc1ccc(-c2ccc(-c3ccc(C(=O)N[C@H]4C[C@@H](O)[C@@H](OCC[N+](C)(C)C)NC(=O)[C@@H]5[C@@H](O)[C@@H](C)CN5C(=O)[C@H]([C@@H](C)O)NC(=O)[C@H]([C@H](O)[C@@H](O)c5ccc(O)cc5)NC(=O)[C@@H]5C[C@@H](O)CN5C(=O)[C@H]([C@@H](C)O)NC4=O)cc3)cc2)cc1 [Example 16] (X2-[Orn(4R-OH,5R-OCH2CH2NMe3+)]T[Hyp][hTyr(3S-OH,4S-OH)]T[Pro(3S-OH,4S-Me)]; lactam 1-C)	–	–	–	–	–	–	–	–	–	–	–	0.25	0.5	0.25	0.25	0.25	0.25	0.25
CCCCCNc1ccc(-c2ccc(-c3ccc(C(=O)N[C@H]4C[C@@H](O)[C@@H](OCC[N+](C)(C)C)NC(=O)[C@@H]5[C@@H](O)[C@@H](C)CN5C(=O)[C@H]([C@@H](C)O)NC(=O)[C@H]([C@H](O)[C@@H](O)c5ccc(O)cc5)NC(=O)[C@@H]5C[C@@H](O)CN5C(=O)[C@H]([C@@H](C)O)NC4=O)cc3)cc2)cc1 [Example 17] (X3-[Orn(4R-OH,5R-OCH2CH2NMe3+)]T[Hyp][hTyr(3S-OH,4S-OH)]T[Pro(3S-OH,4S-Me)]; lactam 1-C)	–	–	–	–	–	–	–	–	–	–	–	0.25	0.25	0.25	0.5	0.5	0.25	0.25
